Data: ChEMBL document CHEMBL5528066, “Discovery of Novel N-(Anthracen-9-ylmethyl) Benzamide Derivatives as ZNF207 Inhibitors Promising in Treating Glioma” (J Med Chem, 2024)
Calls of active or inactive are those of the source. The rule behind the calls is not given here.

Columns and labels:
H4 [1] = assay: Antiproliferative activity against human H4 cells assessed as inhibition of cell growth measured after 72 hrs by CCK-8 assay; assay type: functional, cell-based; details: H4, 72 h
NCI-H460 = assay: Antiproliferative activity against human NCI-H460 cells assessed as inhibition of cell growth incubated for 72 hrs by CCK-8 assay; assay type: functional, cell-based; details: NCI-H460, 72 h
AGS = assay: Antiproliferative activity against human AGS cells assessed as inhibition of cell growth incubated for 72 hrs by CCK-8 assay; assay type: functional, cell-based
H4 [2] = assay: Inhibition of sphere formation in human H4 cells incubated for 168 hrs by microscopic analysis; assay type: functional, cell-based; details: H4, 168 h
LN-229 [3] = assay: Inhibition of colony formation in human LN-229 cells assessed as reduction in number of cell clones treated on day 1 and measured after 14 days by crystal violet staining based microscopic analysis; assay type: functional; details: dose 0.625-5 µM, time 14.0 day
H4 [4] = assay: Inhibition of colony formation in human H4 cells assessed as reduction in colony area at 5 uM treated on day 1 and measured after 14 days by crystal violet staining based microscopic analysis relative to control; assay type: functional; details: H4, 336 h, time 14 day
H4 [5] = assay: Inhibition of sphere formation in human H4 cells assessed as fold reduction in sphere initiating frequency at 2 uM incubated for 10 days by microscopic analysis relative to control; assay type: functional; details: time 10 day
H4 [6] = assay: Inhibition of sphere formation in human H4 cells assessed as fold reduction in sphere initiating frequency at 8 uM incubated for 10 days by microscopic analysis relative to control; assay type: functional; details: time 10 day
LN-229 [7] = assay: Inhibition of sphere formation in human LN-229 cells assessed as fold reduction in sphere initiating frequency at 2 uM incubated for 10 days by microscopic analysis relative to control; assay type: functional; details: time 10 day
Hs 683 [8] = assay: Inhibition of sphere formation in human Hs 683 cells assessed as fold reduction in sphere initiating frequency at 4 uM incubated for 10 days by microscopic analysis relative to control; assay type: functional; details: time 10 day
U-251 [9] = assay: Inhibition of sphere formation in human U-251MG cells assessed as fold reduction in sphere initiating frequency at 8 uM incubated for 10 days by microscopic analysis relative to control; assay type: functional; details: time 10 day
U-251 [10] = assay: Induction of apoptosis in human U-251MG cells at 1.25 uM incubated for 24 hrs by Annexin V-FITC/PI staining based flow cytometry analysis; assay type: functional, cell-based
[11] = Drug concentration in male Sprague-Dawley rat heart at 45 mg/kg, po measured after 8 hrs by LC-MS/MS analysis; assay type: ADME, organism-based; details: read-out: Ct
[12] = Drug concentration in female Sprague-Dawley rat heart at 45 mg/kg, po measured after 8 hrs by LC-MS/MS analysis; assay type: ADME, organism-based; details: read-out: Ct
[13] = Drug concentration in male Sprague-Dawley rat spleen at 45 mg/kg, po measured after 8 hrs by LC-MS/MS analysis; assay type: ADME, organism-based; details: read-out: Ct
[14] = Drug concentration in female Sprague-Dawley rat kidney at 45 mg/kg, po measured after 8 hrs by LC-MS/MS analysis; assay type: ADME, organism-based; details: read-out: Ct
[15] = Drug concentration in male Sprague-Dawley rat intestine at 45 mg/kg, po measured after 8 hrs by LC-MS/MS analysis; assay type: ADME, organism-based; details: read-out: Ct
MDR1 = assay: Apparent permeability across basolateral to apical side in MDCKII-MDR1 cells assessed as drug recovery at 1 uM incubated for 2 hrs by LC-MS/MS analysis; assay type: ADME, cell-based, Canis lupus familiaris; details: dog, MDCK-MDR1, read-out: Drug recovery
[16] = Toxicity in female C57BL/6 mouse assessed as change in cellular structure of brain at 45 mg/kg, po administered once a day for 2 weeks by H and E staining based analysis; assay type: organism-based; details: in vivo, 336 h
[17] = Toxicity in female C57BL/6 mouse assessed as change in cellular structure of spleen at 45 mg/kg, po administered once a day for 2 weeks by H and E staining based analysis; assay type: organism-based; details: in vivo, 336 h
[18] = Toxicity in male C57BL/6 mouse assessed as change in cellular structure of stomach at 45 mg/kg, po administered once a day for 2 weeks by H and E staining based analysis; assay type: organism-based; details: in vivo, 336 h
[19] = Toxicity in male C57BL/6 mouse assessed as change in cellular structure of thymus at 45 mg/kg, po administered once a day for 2 weeks by H and E staining based analysis; assay type: organism-based; details: in vivo, 336 h
LN-229 [20] = assay: Antitumor activity against human LN-229 cells xenografted in BALB/c nude mouse assessed as reduction in proportion of p-H3 positive cells at 150 mg/kg, ip administered twice a week and measured after 49 days by immunohistochemistry analysis; assay type: functional, organism-based; details: time 49.0 day
LN-229-Luc = assay: Antitumor activity against human Ln-229-Luc cells xenografted in BALB/c nude mouse assessed as reduction in tumor load at 45 mg/kg, po administered once a day and measured on day 25 by bioluminescence imaging analysis relative to control; assay type: functional; details: time 25 day
H4 [21] = assay: Inhibition of sphere formation in human H4 cells at 2 uM measured after 10 days in well containing 10000 cells by microscopic analysis; assay type: functional, cell-based; details: time 10.0 day
H4 [22] = assay: Inhibition of sphere formation in human H4 cells at 4 uM measured after 10 days in well containing 100 cells by microscopic analysis; assay type: functional, cell-based; details: time 10.0 day
H4 [23] = assay: Inhibition of sphere formation in human H4 cells at 1 uM measured after 10 days in well containing 10 cells by microscopic analysis; assay type: functional, cell-based; details: time 10.0 day
H4 [24] = assay: Inhibition of sphere formation in human H4 cells at 2 uM measured after 10 days in well containing 10 cells by microscopic analysis; assay type: functional, cell-based; details: time 10.0 day
H4 [25] = assay: Inhibition of sphere formation in human H4 cells at 1 uM measured after 10 days in well containing 1 cells by microscopic analysis; assay type: functional, cell-based; details: time 10.0 day
H4 [26] = assay: Inhibition of sphere formation in human H4 cells at 8 uM measured after 10 days in well containing 1 cells by microscopic analysis; assay type: functional, cell-based; details: time 10.0 day
LN-229 [27] = assay: Inhibition of sphere formation in human LN-229 cells at 4 uM measured after 10 days in well containing 10000 cells by microscopic analysis; assay type: functional, cell-based; details: time 10.0 day
LN-229 [28] = assay: Inhibition of sphere formation in human LN-229 cells at 2 uM measured after 10 days in well containing 1 cells by microscopic analysis; assay type: functional, cell-based; details: time 10.0 day
Hs 683 [29] = assay: Inhibition of sphere formation in human Hs 683 cells at 4 uM measured after 10 days in well containing 10000 cells by microscopic analysis; assay type: functional, cell-based; details: time 10.0 day
Hs 683 [30] = assay: Inhibition of sphere formation in human Hs 683 cells at 8 uM measured after 10 days in well containing 100 cells by microscopic analysis; assay type: functional, cell-based; details: time 10.0 day
Hs 683 [31] = assay: Inhibition of sphere formation in human Hs 683 cells at 4 uM measured after 10 days in well containing 10 cells by microscopic analysis; assay type: functional, cell-based; details: time 10.0 day
U-251 [32] = assay: Inhibition of sphere formation in human U-251MG cells at 1 uM measured after 10 days in well containing 10000 cells by microscopic analysis; assay type: functional, cell-based; details: time 10.0 day
U-251 [33] = assay: Inhibition of sphere formation in human U-251MG cells at 2 uM measured after 10 days in well containing 1000 cells by microscopic analysis; assay type: functional, cell-based; details: time 10.0 day
U-251 [34] = assay: Inhibition of sphere formation in human U-251MG cells at 8 uM measured after 10 days in well containing 100 cells by microscopic analysis; assay type: functional, cell-based; details: time 10.0 day
U-251 [35] = assay: Inhibition of sphere formation in human U-251MG cells at 8 uM measured after 10 days in well containing 1 cells by microscopic analysis; assay type: functional, cell-based; details: time 10.0 day

In the case of `N#CC1(C(=O)NCCC2CCN(Cc3ccccc3)CC2)CC2(Br)c3ccccc3C1c1ccccc12` (racemic), the IC50 (H4 [1]) is reported as 0.72 µM, the IC50 (NCI-H460) is reported as 15.6 µM and the IC50 (AGS) is reported as 9.42 µM. The IC50 (H4 [2]) was 0.74 µM, the inhibition (LN-229 [3]) was “Dose-Dependent Effect” and the inhibition at 5 µM (H4 [4]) was 100%. The “fold change (FC)” value (H4 [5]) was 25.31, the “fold change (FC)” value (H4 [6]) was 51.75 and the “fold change (FC)” value (LN-229 [7]) was 22.43. The “fold change (FC)” value (Hs 683 [8]) was 39.23, the “fold change (FC)” value (U-251 [9]) was 166 and the Activity (U-251 [10]) was “Active”. The concentration at 8 h [11] was 193 ng/g, the concentration at 8 h [12] was 783 ng/g and the concentration at 8 h [13] was 655 ng/g. The concentration at 8 h [14] was 816 ng/g, the concentration at 8 h [15] was 688 ng/g and the recovery at 2 h, 1 µM (MDR1) was 101%. The Activity [16] was “Non-Toxic”, the Activity [17] was “Non-Toxic” and the Activity [18] was “Non-Toxic”. The Activity [19] was “Non-Toxic”, the Activity (LN-229 [20]) was “Active” and the “fold change (FC)” value (LN-229-Luc) was 7.6. The inhibition (H4 [21]) was “inactive”, the inhibition (H4 [22]) was “Active” and the inhibition (H4 [23]) was “Active”. For the same compound, the inhibition (H4 [24]) was “Active”, the inhibition (H4 [25]) was “Active” and the inhibition (H4 [26]) was “Active”. The inhibition (LN-229 [27]) was “inactive”, the inhibition (LN-229 [28]) was “Active” and the inhibition (Hs 683 [29]) was “inactive”. For the same compound, the inhibition (Hs 683 [30]) was “Active”, the inhibition (Hs 683 [31]) was “Active” and the inhibition (U-251 [32]) was “inactive”. For the same compound, the inhibition (U-251 [33]) was “inactive”, the inhibition (U-251 [34]) was “Active” and the inhibition (U-251 [35]) was “Active”.
